Measurements reported in patent US20250302815A1, “PROTEIN TYROSINE PHOSPHATASE TARGETING LIGANDS” (CALICO LIFE SCIENCES LLC, priority 2021, published 2025).

Columns and labels:
[1] = tested on: MC-38 murine colon adenocarcinoma tumors; assay: In vivo efficacy in MC38 syngeneic tumor model; conditions: MC-38 tumor-bearing mice
Procedure: All experiments were conducted in compliance with AbbVie's Institutional Animal Care and Use Committee and the National Institutes of Health Guide for Care and Use of Laboratory Animals guidelines in a facility accredited by the Association for the Assessment and Accreditation of Laboratory Animal Care. C57Bl/6 female mice were obtained from Charles River (Wilmington, MA). The mice were group-housed 10 per cage. Food and water were available ad libitum. Animals were acclimated to the animal facilities for a period of at least one week prior to commencement of experiments. Animals were tested in the light phase of a 12-hour light: 12-hour dark schedule (lights on 0600 hours).
Cells were grown to passage 3 in vitro. A total of 1×10^5 viable MC-38 cells were inoculated subcutaneously into the right flank of female C57Bl/6 mice (7-12 weeks old) on Day 0. The injection volume was 0.1 mL and was composed of a 1:1 mixture of S-MEM and Matrigel® (Corning, NY, USA). […] The mean tumor volume (TV) at size match was approximately 139±45 mm^3. Following size match, treatments were initiated on the same day. Dosing of mice with Compound 187b (Example 187b) was conducted intravenously, weekly (QW) for 3 weeks. Mice were dosed (10 mg/kg/dose) with either Compound 187b or vehicle controls (n=10 mice/group). Compound 187b was formulated in 5% DMSO+10% PEG400+85% (35% HP-β-CD in water) and was dosed at 5 mL/kg. Anti-PD-1 and isotype antibodies were dosed at 5 mg/kg, […] at 4 day intervals (Q4Dx3). Antibodies were formulated in PBS and dosed at 10 mL/kg. Tumor volume was calculated three times weekly. Measurements of the length (L) and width (W) of the tumor were taken via electronic caliper and the volume was calculated according to the following equation: V=L×W^2/2 using Study Director Version 3.1.399.22 (Study log Systems, Inc, CA, USA). Mice were euthanized when tumor volume was […] or skin ulcerations occurred.

PTPN2 (B16F10.4 cells) = biological target: T1, PTPN2 (B16F10.4 cells) (Mus musculus, UniProt Q06180); assay: HiBiT Degradation B16F10.4 PTPN2; format: cell-based; conditions: 24.0 hours
T1 construct: HiBiT; host or cells: B16F10.4
T1 sequence (Q06180 1-406): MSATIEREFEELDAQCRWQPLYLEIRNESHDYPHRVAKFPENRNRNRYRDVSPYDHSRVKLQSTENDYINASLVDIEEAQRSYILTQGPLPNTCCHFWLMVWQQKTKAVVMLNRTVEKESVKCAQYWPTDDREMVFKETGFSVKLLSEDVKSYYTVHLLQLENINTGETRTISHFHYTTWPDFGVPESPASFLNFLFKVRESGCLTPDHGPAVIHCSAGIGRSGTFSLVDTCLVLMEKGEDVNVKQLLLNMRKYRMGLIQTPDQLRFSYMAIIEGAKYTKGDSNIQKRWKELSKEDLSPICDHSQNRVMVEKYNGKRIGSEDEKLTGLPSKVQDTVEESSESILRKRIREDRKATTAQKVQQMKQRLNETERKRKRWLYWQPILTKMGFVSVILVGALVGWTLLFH

[2] = biological target: T2, PTPN2 (HiBIT-PTPN2 in 293T.109 cells) (Homo sapiens, UniProt P17706); assay: HiBiT Degradation 293T.109 PTPN2 (Nano-Glo HiBiT Lytic Assay); format: cell-based; conditions: 24.0 hours
T2 construct: expressed in transfected cells; host or cells: 293T.109 (293T WT from ATCC)
T2 sequence (P17706 1-415): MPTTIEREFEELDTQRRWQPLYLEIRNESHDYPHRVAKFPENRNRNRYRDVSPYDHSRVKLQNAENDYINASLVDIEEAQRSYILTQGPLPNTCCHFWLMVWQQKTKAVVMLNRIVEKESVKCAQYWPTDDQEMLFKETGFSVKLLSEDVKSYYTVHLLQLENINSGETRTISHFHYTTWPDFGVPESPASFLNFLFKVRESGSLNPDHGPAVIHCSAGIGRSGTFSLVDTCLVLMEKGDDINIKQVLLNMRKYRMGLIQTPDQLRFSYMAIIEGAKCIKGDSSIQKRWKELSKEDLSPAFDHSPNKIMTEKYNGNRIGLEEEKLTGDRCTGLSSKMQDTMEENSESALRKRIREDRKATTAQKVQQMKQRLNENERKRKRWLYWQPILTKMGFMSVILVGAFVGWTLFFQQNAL
Summary of the method: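 293T.109 cells with ectopic N-terminal HiBiT-tagged PTPN2 (5000/well) exposed to compounds for 24 h at 37 °C, 5% CO2; 11-point half-log titration from 10 μM top, duplicates. Remaining HiBiT-PTPN2 read as luminescence with Nano-Glo HiBiT lytic reagent, normalised to untreated cells (0%) and reagent-free wells.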

MC-38 tumor = assay: syngeneic mouse tumor model, MC-38 tumor growth inhibition; format: in vivo; conditions: MC-38 tumor-bearing mice, mean tumor volume of 10 mice
From the text: Each point on the curve represents the mean of 10 tumor volume of 10 mice. Error bars depict the standard error of the mean. **=p<0.01.

[3] = combination of anti-PD-1 antibody (5 mg/kg) with Compound 187b (10 mg/kg i.v. QWx3)
[4] = monotherapy, Compound 187b 10 mg/kg intravenously QW for 3 weeks, anti-PD-1 5 mg/kg intraperitoneal every 4 days

CC1(C)C[C@@H](Nc2cccc(-c3sc(C(=O)O)c(OCC(=O)O)c3Cl)c2)CCN1S(=O)(=O)Cc1cccc(NC(=O)N2CCC(c3ccc4c5c(cccc35)C(=O)N4[C@H]3CCC(=O)NC3=O)CC2)c1 (single isomer, unassigned) [Example 187b] was tested, and the tolerability ([1]; 10 mg/kg intravenously QW for 3 weeks) was “well tolerated”, the “TGIMax (maximal tumor growth inhibition)” value [1, 3] was 98% and the mice achieving cures [1, 3] was 90%. For the same compound, the “TGIMax (maximal tumor growth inhibition)” value [1, 4] was 75%, the “mice achieving complete cures” value [1, 4] was 10% and the tumor response ([1]; within 7-10 days of monotherapy treatment) was “apparent tumor stasis and shrinkage”. The DC50 (PTPN2 (B16F10.4 cells)) was less than 50 nM, the DC50 [2] was less than 50 nM and the “anticancer and tumor growth inhibition activity in vivo” value (MC-38 tumor; in combination with anti-PD-1 therapy (Q4Dx2)) was “tumor growth inhibition”. The “anticancer and tumor growth inhibition activity in vivo” value (MC-38 tumor; monotherapy, QWx3) was “tumor growth inhibition”.
